Experimental data reported in patent US20230414571A1, “APPLICATION OF SMALL-MOLECULE COMPOUND IN PREPARATION OF ANTITUMOR DRUG” (SOOCHOW UNIVERSITY, priority 2021, published 2023).

What was measured:
[1] = test system: cranial nerve glioma cell U87; assay: Antiproliferative activity against cranial nerve glioma cell U87; type: cell-based; details: Homo sapiens, U-87 MG; U87 cells; read-out: concentration at which half of the tumor cells are killed
Description: FIG. 14 is an antiproliferative activity test diagram of compound 8, compound 11, compound 13, and compound 21 against a cranial nerve glioma cell U87.

U87 glioma cells = assay: Targeted metabonomics analysis of U87 cells; type: cell-based
Protocol: 1×10^7 cells (a sample cell number) were collected, and the cell supernatant was removed by means of centrifugation (1000×g, 1 minute) after quenching with a newly prepared quencher. The cells were resuspended with 100 μL of ultrapure water and mixed well. After 800 μL of cold methanol:acetonitrile (1:1, v/v) was added, the uniformly mixed cell samples were subjected to ultrasonic treatment in an ice bath for 30 minutes. The mixture was stored at −20° C. for 1 h to precipitate the protein. After centrifugation at 4° C. (14000×g, 20 minutes), the supernatant was collected, lyophilized, stored at −80° C., and then analyzed by means of […].
The lyophilized samples were resuspended in a solution (acetonitrile:water, 1:1, v/v, 100 μL) and then centrifuged at 4° C. (14000×g, 10 minutes). The supernatant (100 μL) was collected and diluted with an acetonitrile solution (100 μL), and a […] sample was loaded at 4° C. by using an Agilent 1290 Infinity liquid chromatography (LC) system (Agilent Technologies, Beijing, China) and a 5500 QTRAP mass spectrometer (Toronto of Canada, AB Sciex). At ACQUITY-UPLC-BEH column (1.7 μm, 2.1 mm×150 mm, Waters Technology (Shanghai) Co., Ltd.), chromatographic separation was performed at a flow rate of 300 μL/min, where solvent A (mobile phase) was a 15 mM ammonium acetate aqueous solution, and solvent B was acetonitrile. Chromatographic conditions of gradient elution were reduced from 90% B to 40% B, and were increased sharply from 40% B to 90% B after 18 minutes, a volume ratio of 90% B was kept for 4.9 minutes after 0.1 minute, and the duration of the whole process was 23 minutes. An equal volume of compounds was extracted from 32 actual samples so as to monitor the stability of the system, thereby being used for processing a quality control (QC) sample and put into a real sample. Mass spectrum experiments were performed in a negative ion and multi-reaction monitoring mode, and specific parameters were as follows: a source temperature of 450° C., an atomizer gas (GS1): 45, an auxiliary gas (GS2): 45, a curtain gas (CUR): 30, and an ion space voltage floating (ISVF): −4500 V.
Standard GC-MS data was processed by using analysis software (AB Sciex, Toronto, Canada), which included converting the original mass spectrum data to data containing m/z, measuring the corresponding ion intensity and retention time, and subsequent statistical analysis. Peak testing and calibration of all the samples were compared to their chemical standards (Sigma-Aldrich). […]
Statistical significance was tested by using t. *: P<0.05, **: P<0.01, and ***: P<0.005. […] The hexokinase (HK2 in cancer cells), which is the first one and serves as a rate-limiting enzyme in a glycolysis pathway was evaluated. […]

[2] = Plasma pharmacokinetics in mice determined by GLMSD; type: in vivo, mouse; details: mouse, in vivo, 40 mg/kg
Protocol: It can be seen from FIG. 8-1 that the GLMSD platform can specifically acquire the pharmacokinetic data of small-molecule compound 27. Competitive advantages of GLMSD in pharmacokinetic research: (1) a complete drug blood concentration curve of each individual may be tracked; and (2) the total number of mice used in the test is reduced. Since the blood sample consumption of the GLMSD method is low (10 μL of blood per time point), one mouse can be used for completing the entire pharmacokinetic curve (blood sampling at 11 time points within 24 hours, and the minimum interval being 0.25 hour) of a drug.
Based on the advantage that the complete PK curve can be tested by means of the GLMSD, we observe that 3 (#2, #3 and #4) in 8 mice have the characteristic re-absorption peak of this small-molecule inhibitor at the time point of 8 h, and such a characteristic re-absorption peak hardly exists in other 5 mice. This significant phenomenon is related to drug uptake differences between individuals, prompting that compound 27 may re-enter blood circulation by means of a secondary absorption pathway. In the mode of continuous multiple administration (c in FIG. 8-2), pharmacokinetic data of compound 27 (40 mg/kg) was collected from each mouse every day (1, 3, 6, and 8 hours after last administration) for 5 days. For a single dose (a in FIG. 8-2) or a continuous multi-dose (d in FIG. 8-2) administration manner, a limitation of a conventional LC-MS technology lies in obtaining a single data point of pharmacokinetics of a drug by sacrificing one mouse, whereas GLMSD can break through this limitation by providing a complete pharmacokinetic curve based on a single mouse.

U87MG tumor = U87MG tumor growth and survival in mice after various treatments; type: in vivo, nude mouse
Description: In all different experimental groups (a and b in FIG. 10), the overall survival (OS) of mice treated with TMZ and compound 27 is the best. […] However, mouse death caused by glioma is reduced only 20 days […] treatment. After this period of time, the survival rates of the in-situ U87 heterogeneous tumor of the two single drug groups decreases rapidly due to malignant glioma.

In the case of `CCOc1ccc(C(=O)NCCCN(C)CCCN(C)Cc2ccccc2)cc1Br` [compound 27], the IC50 [1] is reported as 11.3 µM, the “glyceraldehyde-3-phosphate accumulation relative to control group processed by PBS” value (U87 glioma cells; U87 cells after treatment) is reported as “approximately 3.5 times” and the “increase in concentration of thiamine pyrophosphate (TPP)” value (U87 glioma cells; U87 cells after treatment) is reported as roughly 2.5 times. For the same compound, the glyceride-3-phosphate change (U87 glioma cells; U87 cells after treatment, P<0.005) was “significantly reduced by nearly two orders of magnitude”, the “concentration of glucose-6-phosphate” value (U87 glioma cells; U87 cells, vs control group processed by PBS) was “lower than that of the control group” and the AUC(0-t) [2] was 64400 ng·h/mL. For the same compound, the Cmax [2] was 14600 ng/mL, the Tmax [2] was 2 h and the half-life [2] was 4.12 h. The “growth of solid tumors” value (U87MG tumor; U87MG subcutaneous tumor, nude mouse) was “can inhibit growth of solid tumors”, the “glioma growth / survival rate, bioluminescence tracking” value (U87MG tumor; in situ U87-luciferase mice, compared with PBS) was “delays the growth of glioma” and the median survival time (U87MG tumor; mice with U87MG tumor, n=6 per group) was 30 days.
